# Where two headings read alike, the source gives them in different places.
# Molecular target: T1, human P2X3 receptor (Homo sapiens, UniProt P56373)
# T1 construct: expressed in transfected cells; host or cells: CHO-K1
# T1 sequence (P56373 1-397): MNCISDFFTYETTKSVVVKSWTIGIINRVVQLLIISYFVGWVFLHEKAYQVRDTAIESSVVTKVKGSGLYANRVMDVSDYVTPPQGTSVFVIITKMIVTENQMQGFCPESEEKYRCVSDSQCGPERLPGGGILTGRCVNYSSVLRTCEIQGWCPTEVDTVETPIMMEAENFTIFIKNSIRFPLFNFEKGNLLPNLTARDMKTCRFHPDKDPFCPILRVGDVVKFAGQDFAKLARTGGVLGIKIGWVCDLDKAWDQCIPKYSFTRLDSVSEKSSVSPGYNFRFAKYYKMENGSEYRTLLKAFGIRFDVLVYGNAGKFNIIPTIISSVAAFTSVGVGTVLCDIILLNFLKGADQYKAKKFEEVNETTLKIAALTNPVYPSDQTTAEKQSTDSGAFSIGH
# Assay: Calcium luminescence (photoprotein) assay in CHO-K1 cells co-expressing human P2X3 receptor, α,β-Met-ATP stimulation, FLEXSTATION readout
# Type: cell-based
# Settings: human P2X3 receptor antagonist activity, CHO-K1 cells, α,β-Met-ATP, read-out: h-P2X3 IC50
# Experimental: The assay for the human purinergic P2X3 receptor has been adapted to the internal screening instrumentation using the FLEXSTATION as reader and a photoprotein as luminescent readout. The assay consists of CHO-K1 cells recombinantly co-expressing the human P2rx3 receptor and a Ca^2+ sensitive photoprotein. Cells are maintained in DMEM F-12 (1:1) mixture (LONZA cat. no BE04-687F/U1) supplemented with 9 mL of 100 mM Sodium Pyruvate (LONZA cat. no BE13-115E), 29 mL of 7.5% Sodium Bicarbonate (LONZA cat. no: BE17-613E), 5.5 mL of 1 M Hepes (LONZA cat. no BE17-737E), 5 mL of 100× Penicillin/Streptomycin (LONZA cat. no DE17-602E) and 50 mL of Fetal Bovine Serum (Sigma cat. no F7524), 1 mg/mL G418 (Sigma cat. no G8168) and 5 µg/ml puromycin (Sigma cat. no P9620). Standard propagation conditions consist of seeding in a P75 flask twice a week, recovering about 20×10^6 cells, corresponding to about 80% confluency. Cells were seeded into black-walled clear bottom 96 well plates at a density of 40000 cells/well in a Tyrode's buffer (Standard Tyrode's buffer: in house solution, 130 mM NaCl, 5 mM KCl, 2 mM CaCl2, 5 mM NaHCO3, 1 mM MgCl2, 20 mM HEPES, pH 7.4). After 24 h the culture medium was replaced with 200 μL/well of coelenterazine in Tyrode's buffer (Coelenterazine: from BIOSYNTH (cat. no C-7001). 10 mM stock solution was prepared in DMSO and glutathione and stored at −20° C.). The plates were incubated for 4 hours at 37° C., and injected with 10 μL/well of test compounds at 25× concentration in Tyrode's buffer. After 4 minutes a second injection of 50 μL/well of 5× α,β-Met-ATP in Tyrode's buffer (α,β-Met-ATP: from Tocris (cat. no 3209), was dissolved at 100 mM in water and stored in aliquots at −20° C.) was performed and the signal of the emitted luminescence was recorded by FLEXSTATION III (Molecular Devices).
# The inhibition curves of the tested compounds at cloned P2X3 receptor were determined by nonlinear regression analysis using software Prism 4.0 (Graphpad, San Diego, Calif.). The IC50 values and pseudo-Hill slope coefficients were estimated by the program.
SMILES,IC50 (Table 8) [nM],further results
"Cc1ccc(Cc2nn3c(CC4CCOCC4)nnc3c3ncc(N4CCOCC4)cc23)cc1 [Example 117, 6-(4-methylbenzyl)-8-(morpholin-4-yl)-3-(tetrahydro-2H-pyran-4-ylmethyl)pyrido[2,3-d][1,2,4]triazolo[4,3-b]pyridazine]",197,–
"COCCC1CN=C2c3ncc(N4CCOCC4)cc3N(Cc3ccc(OC)cc3)C(=O)N21 (stereo not shown) [Example 66, 6-(4-methoxybenzyl)-3-(2-methoxyethyl)-8-(morpholin-4-yl)-2,6-dihydroimidazo[1,2-c]pyrido[2,3-e]pyrimidin-5(3H)-one]",–,IC50 (Table 6): 2280 nM
"COc1ccc(CN2C(=O)N3CC(CC(F)(F)F)N=C3c3ncc(N4CCOCC4)cc32)cc1 (stereo not shown) [Example 56, 6-(4-methoxybenzyl)-8-(morpholin-4-y1)-2-(2,2,2-trifluoroethyl)-2,6-dihydroimidazo[1,2-c]pyrido[2,3-e]pyrimidin-5(3H)-one]",–,IC50 (Table 6): 345 nM
"Cc1noc(C)c1-c1nnc2c3ncc(N4CCOCC4)cc3n(Cc3ccc(Cl)cc3)c(=O)n12 [Example 110, 6-(4-chlorobenzyl)-3-(3,5-dimethyl-1,2-oxazol-4-yl)-8-(morpholin-4-yl)pyrido[2,3-e][1,2,4]triazolo[4,3-c]pyrimidin-5(6H)-one]",–,IC50 (Table 7): 257 nM
"COCC1CN(c2cnc3c(c2)c(Cc2ccc(Cl)cc2)nn2c(CC(C)C)nnc32)C1 [Example 128, 6-(4-chlorobenzyl)-8-[3-(methoxymethyl)azetidin-1-yl]-3-(2-methylpropyl)pyrido[2,3-d][1,2,4]triazolo[4,3-b]pyridazine]",576,–
"CC(c1nnc2c3ncc(N4CCOCC4)cc3c(Cc3ccc(Cl)cc3)nn12)C1CCOCC1 (stereo not shown) [Example 132, 6-(4-chlorobenzyl)-8-(morpholin-4-yl)-3-[1-(tetrahydro-2H-pyran-4-yl)ethyl]pyrido[2,3-d][1,2,4]triazolo[4,3-b]pyridazine]",19.1,–
"COc1cc(Cc2nn3c(COC(C)C)nnc3c3ncc(N4CCOCC4)cc23)cc(OC)c1 [Example 119, 6-(3,5-dimethoxybenzyl)-8-(morpholin-4-yl)-3-[(propan-2-yloxy)methyl]pyrido[2,3-d][1,2,4]triazolo[4,3-b]pyridazine]",1210,–
"Cc1ccc(Cc2nn3c(CC4CCCCC4)nnc3c3ncc(N4CCOCC4)cc23)cc1 [Example 137, 3-(cyclohexylmethyl)-6-(4-methylbenzyl)-8-(morpholin-4-yl)pyrido[2,3-d][1,2,4]triazolo[4,3-b]pyridazine]",234,–
"CC(C)CC1C(=O)N=C2c3ncc(N4CCOCC4)cc3N(Cc3ccc(Cl)cc3)C(=O)N21 (stereo not shown) [Example 64, 6-(4-chlorobenzyl)-3-(2-methylpropyl)-8-(morpholin-4-yl)imidazo[1,2-c]pyrido[2,3-e]pyrimidine-2,5(3H,6H)-dione]",–,IC50 (Table 6): 109 nM
"COc1ccc(Cn2c(=O)n3c(C)c(C(C)C)nc3c3ncc(N4CCOCC4)cc32)cc1 [Example 89, 6-(4-methoxybenzyl)-3-methyl-8-(morpholin-4-yl)-2-(propan-2-yl)imidazo[1,2-c]pyrido[2,3-e]pyrimidin-5(6H)-one]",–,IC50 (Table 7): 575 nM
"COc1ccc(Cc2nn3c(C(C)C)nnc3c3ncc(N4CCOCC4)cc23)cc1 [Example 122, 6-(4-methoxybenzyl)-8-(morpholin-4-yl)-3-(propan-2-yl)pyrido[2,3-d][1,2,4]triazolo[4,3-b]pyridazine]",1810,–
"Clc1ccc(Cc2nn3c(CC4CCOCC4)nnc3c3ncc(N4CCOCC4)cc23)cc1 [Example 126, 6-(4-chlorobenzyl)-8-(morpholin-4-yl)-3-(tetrahydro-2H-pyran-4-ylmethyl)pyrido[2,3-d][1,2,4]triazolo[4,3-b]pyridazine]",20.6,–
"O=c1n(Cc2ccc(Cl)cc2)c2cc(N3CCOCC3)cnc2c2nnc(CC3CCOCC3)n12 [Example 186, 6-(4-chlorobenzyl)-8-(morpholin-4-yl)-3-(tetrahydro-2H-pyran-4-ylmethyl)pyrido[2,3-e][1,2,4]triazolo[4,3-c]pyrimidin-5(6H)-one]",–,IC50 (Table 9): 289 nM

# Source: patent publication US11999732B2, “P2X3 receptor antagonists” (RECORDATI INDUSTRIA CHIMICA E FARMACEUTICA SPA, priority 2018, dated 2024)
